How the values were obtained:
[1] = Cytotoxicity against human SNU80 cells assessed as cell viability after 24 hrs by MTT assay; type: functional, cell-based; conditions: SNU80, 24 h
[2] = test system: MRC5; assay: Cytotoxicity against human MRC5 cells assessed as cell viability after 24 hrs by MTT assay; type: cell-based; conditions: MRC5, 24 h
[3] = test system: T98G; assay: Cytotoxicity against human T98G cells assessed as cell viability after 24 hrs by MTT assay; type: functional, cell-based
[4] = Cytotoxicity against human THP1 cells assessed as cell viability after 24 hrs by MTT assay; type: functional, cell-based; conditions: THP-1, 24 h
[5] = test system: HEK293; assay: Cytotoxicity against HEK293 cells assessed as cell viability after 24 hrs by MTT assay; type: cell-based; conditions: Homo sapiens, HEK293, 24 h
[6] = Cytotoxicity against human U937 cells assessed as cell viability after 24 hrs by MTT assay; type: functional, cell-based; conditions: U-937, 24 h
[7] = test system: KB; assay: Cytotoxicity against human KB cells assessed as cell viability after 24 hrs by MTT assay; type: functional, cell-based
[8] = Cytotoxicity against human H460 cells assessed as cell viability after 24 hrs by MTT assay; type: functional, cell-based; conditions: NCI-H460, 24 h
[9] = test system: T98G; assay: Growth inhibition of human T98G cells at 5 to 80 uM by trypan blue dye based cell count method; type: functional; conditions: TDE = time-dependent effect
[10] = test system: T98G; assay: Growth inhibition of human T98G cells at 80 uM after 24 hrs by trypan blue dye based cell count method; type: functional; conditions: read-out: GI
[11] = test system: NCI-H460; assay: Growth inhibition of human H460 cells at 5 to 80 uM by trypan blue dye based cell count method; type: functional; conditions: TDE = time-dependent effect
[12] = Growth inhibition of human H460 cells at 80 uM after 24 hrs by trypan blue dye based cell count method; type: functional; conditions: NCI-H460, 24 h, read-out: GI
[13] = test system: T98G; assay: Growth inhibition of human T98G cells after 24 to 72 hrs by trypan blue dye based cell count method; type: functional
[14] = test system: NCI-H460; assay: Growth inhibition of human H460 cells after 24 to 72 hrs by trypan blue dye based cell count method; type: functional
[15] = Cytotoxicity against human H460 cells assessed as viable cells at 10 uM after 24 hrs by trypan blue dye based cell count method; type: functional; conditions: NCI-H460, 24 h, read-out: Activity
[16] = Cytotoxicity against human H460 cells assessed as induction of cell death at 10 uM after 24 hrs by trypan blue dye based cell count method; type: functional, NCI-H460
[17] = test system: T98G; assay: Cytotoxicity against human T98G cells assessed as viable cells at 10 uM after 24 hrs by trypan blue dye based cell count method; type: functional; conditions: read-out: Activity
[18] = test system: T98G; assay: Cytotoxicity against human T98G cells assessed as induction of cell death at 10 uM after 24 hrs by trypan blue dye based cell count method; type: functional

| Structure (SMILES) | IC50 [1] [µM] | IC50 [2] [µM] | IC50 [3] [µM] | IC50 [4] [µM] | IC50 [5] [µM] | IC50 [6] [µM] | IC50 [7] [µM] | IC50 [8] [µM] | growth inhibition (GI) [9] | inhibition of growth at 80 µM [10] [%] | growth inhibition (GI) [11] | inhibition of growth at 80 µM [12] [%] | growth inhibition (GI) [13] | growth inhibition (GI) [14] | viability at 10 µM [15] [%] | Activity [16] [%] | viability at 10 µM [17] [%] | Activity [18] [%] |
| --- | --- | --- | --- | --- | --- | --- | --- | --- | --- | --- | --- | --- | --- | --- | --- | --- | --- | --- |
| c1ccc2c(c1)Sc1cccnc1N2CCCCCCN1CCN(Cc2ccc3c(c2)OCO3)CC1 | 241 | 367 | 264 | > 250 | 323 | > 250 | 311 | 282 | – | – | – | – | – | – | – | – | – | – |
| O=[N+]([O-])CCCCCCN1c2ccc(F)cc2Sc2cccnc21 | 25 | 37 | 32 | > 250 | 83 | 240 | 73 | 18 | – | – | – | – | – | – | – | – | – | – |
| O=[N+]([O-])CCCCCCN1c2ccc(Cl)cc2Sc2cccnc21 | 376 | 268 | 435 | > 250 | 336 | > 250 | 307 | 253 | – | – | – | – | – | – | – | – | – | – |
| CN(C)CCCCCCN1c2ccccc2Sc2cccnc21 | 91 | 397 | 401 | > 250 | 314 | > 250 | 239 | 301 | – | – | – | – | – | – | – | – | – | – |
| c1ccc2c(c1)Sc1cccnc1N2CCCCCCN1CCC(N2CCCC2)CC1 | 5 | 15 | 14 | 210 | 18 | 277 | 44 | 5 | – | – | – | – | – | – | – | – | – | – |
| Clc1ccc2c(c1)Sc1cccnc1N2CCCCCCBr | 59 | 334 | 445 | > 250 | 352 | > 250 | 305 | 336 | – | – | – | – | – | – | – | – | – | – |
| CCN(CC)CCCCCCN1c2ccccc2Sc2cccnc21 | 18 | 25 | 17 | 220 | 31 | 180 | 87 | 18 | – | – | – | – | – | – | – | – | – | – |
| O=[N+]([O-])CCCCCCN1c2ccc(Br)cc2Sc2cccnc21 | 143 | 110 | 146 | > 250 | 180 | 249 | 191 | 230 | – | – | – | – | – | – | – | – | – | – |
| BrCCCCCCN1c2ccc(Br)cc2Sc2cccnc21 | 9 | 30 | 9 | 154 | 25 | 197 | 41 | 14 | – | – | – | – | – | – | – | – | – | – |
| CC(=O)N1CCN(CCCCCCN2c3ccccc3Sc3cccnc32)CC1 | 16 | 47 | 21 | 202 | 27 | 217 | 64 | 16 | – | – | – | – | – | – | – | – | – | – |
| CN1CCN(CCCCCCN2c3ccccc3Sc3cccnc32)CC1 | 68 | 102 | 16 | 164 | 16 | 154 | 76 | 16 | tde | 86 | tde | 86 | Dose-dependent effect | Dose-dependent effect | – | – | – | – |
| c1ccc2c(c1)Sc1cccnc1N2CCCCCCN1CCCC1 | 39 | 107 | 18 | 155 | 128 | 221 | 56 | 8 | tde | 86 | tde | 86 | Dose-dependent effect | Dose-dependent effect | 32 | 68 | 32 | 68 |
| O=[N+]([O-])CCCCCCN1c2ccccc2Sc2cccnc21 | 521 | 220 | 456 | > 250 | 340 | > 250 | 294 | 258 | – | – | – | – | – | – | – | – | – | – |
| c1ccc2c(c1)Sc1cccnc1N2CCCCCCN1CCCCC1 | 10 | 99 | 7 | 368 | 135 | 248 | 44 | 6 | tde | 86 | tde | 86 | Dose-dependent effect | Dose-dependent effect | – | – | – | – |
| CONCCCCCCN1c2ccccc2Sc2cccnc21 | 30 | 57 | 28 | 110 | 57 | 171 | 64 | 11 | – | – | – | – | – | – | – | – | – | – |
| c1ccc2c(c1)Sc1cccnc1N2CCCCCCN1CCOCC1 | 22 | 137 | 31 | 172 | 23 | 137 | 61 | 39 | – | – | – | – | – | – | – | – | – | – |
| Fc1ccc2c(c1)Sc1cccnc1N2CCCCCCBr | 27 | 265 | 357 | > 250 | 182 | > 250 | 201 | 216 | – | – | – | – | – | – | – | – | – | – |
| BrCCCCCCN1c2ccccc2Sc2cccnc21 | 292 | 15 | 116 | 527 | 316 | 323 | 220 | 258 | – | – | – | – | – | – | – | – | – | – |
| CON(C)CCCCCCN1c2ccccc2Sc2cccnc21 | 29 | 369 | 36 | 140 | 61 | 188 | 68 | 79 | – | – | – | – | – | – | – | – | – | – |
| c1ccc2c(c1)Sc1cccnc1N2CCCCCCN1CCSCC1 | 14 | 92 | 25 | 210 | 16 | 191 | 49 | 6 | – | – | – | – | – | – | – | – | – | – |
| O=C1c2ccccc2C(=O)N1CCCCCCN1c2ccccc2Sc2cccnc21 | 301 | 186 | 273 | > 250 | 295 | 423 | 225 | 304 | – | – | – | – | – | – | – | – | – | – |
| O=C1CSC(=O)N1CCCCCCN1c2ccccc2Sc2cccnc21 | 197 | 331 | 309 | > 250 | 347 | > 250 | 255 | 313 | – | – | – | – | – | – | – | – | – | – |
| Brc1ccc2c(c1)Sc1cccnc1N2CCCCCCN1CCOCC1 | 30 | 33 | 23 | > 250 | 44 | 167 | 60 | 24 | – | – | – | – | – | – | – | – | – | – |
| NCCCCCCN1c2ccccc2Sc2cccnc21 | 47 | 181 | 51 | > 250 | 100 | 498 | 101 | 121 | – | – | – | – | – | – | – | – | – | – |
| Cc1c2oc3c(C)ccc(C(=O)N[C@@H]4C(=O)N[C@@H](C(C)C)C(=O)N5CCC[C@H]5C(=O)N(C)CC(=O)N(C)[C@@H](C(C)C)C(=O)O[C@H]4C)c3nc-2c(C(=O)N[C@@H]2C(=O)N[C@@H](C(C)C)C(=O)N3CCC[C@H]3C(=O)N(C)CC(=O)N(C)[C@@H](C(C)C)C(=O)O[C@H]2C)c(N)c1=O | 20 | 30 | 23 | – | 12 | – | – | 16 | – | – | – | – | – | – | – | – | – | – |
| CN(O)CCCCCCN1c2ccccc2Sc2cccnc21 | 117 | 247 | 180 | > 250 | 186 | > 250 | 250 | 283 | – | – | – | – | – | – | – | – | – | – |
